Data reported in publication doi:10.1101/2025.06.19.660642, “Discovery of orally bioavailable Zika and West Nile Virus antiviral compounds targeting the NS2B-NS3 protease” (bioRxiv, 2025).
Where two headings read alike, the source gives them in different places.

Biological target: T1, ZIKV NS2B-NS3 protease (Zika virus, UniProt A0A024B7W1)
T1 construct: directed at the co-expressed ZIKV NS2B-NS3 protease
Experiment: ZIKV NS2B-NS3 protease biochemical FRET assay
Settings: for Ligand efficiency (LE): Ligand efficiency = pKi / heavy atom count

[1] = ZIKV NS2B-NS3 Ki (uM), library 1, supplement
[2] = library 1, supplement, read-out: ZIKV NS2B-NS3 Ki

T1 sequence (A0A024B7W1 1503-1680): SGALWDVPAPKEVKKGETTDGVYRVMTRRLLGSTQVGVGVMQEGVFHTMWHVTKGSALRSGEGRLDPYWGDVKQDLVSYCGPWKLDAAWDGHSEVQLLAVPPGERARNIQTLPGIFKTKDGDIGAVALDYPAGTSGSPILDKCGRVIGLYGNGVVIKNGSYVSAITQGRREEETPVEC
T1 sequence (A0A024B7W1 1425-1464): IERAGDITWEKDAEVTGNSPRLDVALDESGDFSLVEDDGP

| SMILES | Ki [1] | other results |
| --- | --- | --- |
| Cc1ccc(NC(=O)c2cc(Cl)cc(NC(=O)OCc3ccccc3)c2)cc1CN [ASAP-0021119, Cc1ccc(NC(=O)c2cc(Cl)cc(NC(=O)OCc3ccccc3)c2)cc1CN] | 9.81 µM | – |
| O=C(Nc1cc(Cl)cc(C(=O)Nc2ccc3c(c2)CNCCO3)c1)OCc1ccccc1 [ASAP-0021552, O=C(Nc1cc(Cl)cc(C(=O)Nc2ccc3c(c2)CNCCO3)c1)OCc1ccccc1] | 6.9 µM | – |
| Cn1nc2c(c1NC(=O)c1cc(Cl)cc(NC(=O)OCc3ccccc3)c1)CCNC2 [ASAP-0021390, Cn1nc2c(c1NC(=O)c1cc(Cl)cc(NC(=O)OCc3ccccc3)c1)CCNC2] | > 89.3 µM | – |
| CN1CCc2nc(NC(=O)c3cc(Cl)cc(NC(=O)OCc4ccccc4)c3)sc2C1 [ASAP-0020935, CN1CCc2nc(NC(=O)c3cc(Cl)cc(NC(=O)OCc4ccccc4)c3)sc2C1] | > 89.3 µM | – |
| CN1CCn2nc(NC(=O)c3cc(Cl)cc(NC(=O)OCc4ccccc4)c3)cc2C1 [ASAP-0020900, CN1CCn2nc(NC(=O)c3cc(Cl)cc(NC(=O)OCc4ccccc4)c3)cc2C1] | > 89.3 µM | – |
| NCCc1nsc(NC(=O)c2cc(Cl)cc(NC(=O)OCc3ccccc3)c2)n1 [ASAP-0021153, NCCc1nsc(NC(=O)c2cc(Cl)cc(NC(=O)OCc3ccccc3)c2)n1] | > 89.3 µM | – |
| NCCc1cccc(NC(=O)c2cc(Cl)cc(NC(=O)OCc3ccccc3)c2)c1 [ASAP-0017670, NCCc1cccc(NC(=O)c2cc(Cl)cc(NC(=O)OCc3ccccc3)c2)c1] | 3.51 µM | – |
| Cn1nc2c(c1NC(=O)c1cc(Cl)cc(NC(=O)OCc3ccccc3)c1)CNC2 [ASAP-0020883, Cn1nc2c(c1NC(=O)c1cc(Cl)cc(NC(=O)OCc3ccccc3)c1)CNC2] | > 89.3 µM | – |
| O=C(Nc1cc(Cl)cc(C(=O)Nc2nccn2C2CNC2)c1)OCc1ccccc1 [ASAP-0021559, O=C(Nc1cc(Cl)cc(C(=O)Nc2nccn2C2CNC2)c1)OCc1ccccc1] | > 89.3 µM | – |
| NCc1ccc(CNC(=O)c2cc(Cl)cc(NC(=O)OCc3ccccc3)c2)c(F)c1 [ASAP-0021676, NCc1ccc(CNC(=O)c2cc(Cl)cc(NC(=O)OCc3ccccc3)c2)c(F)c1] | 29.5 µM | – |
| O=C(Nc1cc(Cl)cc(C(=O)Nc2n[nH]c3c2CNC3)c1)OCc1ccccc1 [ASAP-0021061, O=C(Nc1cc(Cl)cc(C(=O)Nc2n[nH]c3c2CNC3)c1)OCc1ccccc1] | 36.1 µM | – |
| NCc1cccc(NC(=O)c2cc(Cl)cc3[nH]ncc23)c1 [ASAP-0023261] | – | Ligand efficiency (LE): 0.407; Ki (ZIKV NS2B-NS3 Ki): 0.796 µM |
| NCc1ccc(F)c(NC(=O)c2cc(Cl)cc(NC(=O)OCc3ccccc3)c2)c1 [ASAP-0021403, NCc1ccc(F)c(NC(=O)c2cc(Cl)cc(NC(=O)OCc3ccccc3)c2)c1] | – | Ki (ZIKV NS2B-NS3 pKi, library 1, supplement): 3.89 µM |
| O=C(Nc1cc(Cl)cc(C(=O)Nc2n[nH]c3c2CNC32CC2)c1)OCc1ccccc1 [ASAP-0021028, O=C(Nc1cc(Cl)cc(C(=O)Nc2n[nH]c3c2CNC32CC2)c1)OCc1ccccc1] | > 89.3 µM | – |
| NCc1cccc(NC(=O)c2cc(Cl)cc(NC(=O)OCc3ccccc3)c2)c1 [ASAP-0016806] | – | Ligand efficiency (LE): 0.259; Ki (ZIKV NS2B-NS3 Ki): 4.3 µM |
| O=C(Nc1cc(Cl)cc(C(=O)Nc2ccnc(OC3CNC3)c2)c1)OCc1ccccc1 [ASAP-0021594, O=C(Nc1cc(Cl)cc(C(=O)Nc2ccnc(OC3CNC3)c2)c1)OCc1ccccc1] | 59.3 µM | – |
| C[C@]1(CNC(=O)c2cc(Cl)cc(NC(=O)OCc3ccccc3)c2)CNCCOC1 [ASAP-0021641, C[C@]1(CNC(=O)c2cc(Cl)cc(NC(=O)OCc3ccccc3)c2)CNCCOC1 ¦&1:1¦] | – | ZIKV NS2B-NS3 pKi (library 1, supplement): < 4.05; Ki [2]: > 89.3 µM |
| Cc1cc(CN)cc(NC(=O)c2cc(Cl)cc(NC(=O)OCc3ccccc3)c2)c1 [ASAP-0021201, Cc1cc(CN)cc(NC(=O)c2cc(Cl)cc(NC(=O)OCc3ccccc3)c2)c1] | 4.63 µM | – |

| SMILES | Ki [1] | other results |
| --- | --- | --- |
| NCc1cn(CCNC(=O)c2cc(Cl)cc(NC(=O)OCc3ccccc3)c2)nn1 [ASAP-0021085, NCc1cn(CCNC(=O)c2cc(Cl)cc(NC(=O)OCc3ccccc3)c2)nn1] | > 89.3 µM | – |
| O=C(Nc1cc(Cl)cc(C(=O)NC[C@@H]2CNCCC2(F)F)c1)OCc1ccccc1 [ASAP-0021511, O=C(Nc1cc(Cl)cc(C(=O)NC[C@@H]2CNCCC2(F)F)c1)OCc1ccccc1 ¦&1:13¦] | – | ZIKV NS2B-NS3 pKi (library 1, supplement): < 4.05; Ki [2]: > 89.3 µM |
| O=C(Nc1cc(Cl)cc(C(=O)NCc2n[nH]c3c2CNCC3)c1)OCc1ccccc1 [ASAP-0021271, O=C(Nc1cc(Cl)cc(C(=O)NCc2n[nH]c3c2CNCC3)c1)OCc1ccccc1] | > 89.3 µM | – |
| CN(C)Cc1cc(NC(=O)c2cc(Cl)cc(NC(=O)OCc3ccccc3)c2)sn1 [ASAP-0020825, CN(C)Cc1cc(NC(=O)c2cc(Cl)cc(NC(=O)OCc3ccccc3)c2)sn1] | > 89.3 µM | – |
| NCC1CCN(C(=O)c2cc(Cl)cc(NC(=O)OCc3ccccc3)c2)CC1 [ASAP-0017689, NCC1CCN(C(=O)c2cc(Cl)cc(NC(=O)OCc3ccccc3)c2)CC1] | 87.4 µM | – |
| Cn1nc(CCN)nc1NC(=O)c1cc(Cl)cc(NC(=O)OCc2ccccc2)c1 [ASAP-0021177, Cn1nc(CCN)nc1NC(=O)c1cc(Cl)cc(NC(=O)OCc2ccccc2)c1] | 28.1 µM | – |
| NCc1nccc(NC(=O)c2cc(Cl)cc(NC(=O)OCc3ccccc3)c2)n1 [ASAP-0017603, NCc1nccc(NC(=O)c2cc(Cl)cc(NC(=O)OCc3ccccc3)c2)n1] | > 89.3 µM | – |
| NCc1ccc(NC(=O)c2cc(Cl)cc(NC(=O)OCc3ccccc3)c2)cc1 [ASAP-0017575, NCc1ccc(NC(=O)c2cc(Cl)cc(NC(=O)OCc3ccccc3)c2)cc1] | 9.23 µM | – |
| NCCc1ccc(NC(=O)c2cc(Cl)cc(NC(=O)OCc3ccccc3)c2)cc1 [ASAP-0017692, NCCc1ccc(NC(=O)c2cc(Cl)cc(NC(=O)OCc3ccccc3)c2)cc1] | 9.64 µM | – |
| NC[C@H]1CC[C@H](NC(=O)c2cc(Cl)cc(NC(=O)OCc3ccccc3)c2)CC1 [ASAP-0017626, NC[C@H]1CC[C@H](NC(=O)c2cc(Cl)cc(NC(=O)OCc3ccccc3)c2)CC1] | > 89.3 µM | – |
| NC[C@H]1CC[C@H](CNC(=O)c2cc(Cl)cc(NC(=O)OCc3ccccc3)c2)CC1 [ASAP-0017744, NC[C@H]1CC[C@H](CNC(=O)c2cc(Cl)cc(NC(=O)OCc3ccccc3)c2)CC1] | 23.1 µM | – |
| NCc1ccc(O)c(NC(=O)c2cc(Cl)cc(NC(=O)OCc3ccccc3)c2)c1 [ASAP-0021142, NCc1ccc(O)c(NC(=O)c2cc(Cl)cc(NC(=O)OCc3ccccc3)c2)c1] | 16.3 µM | – |
| NCCNC(=O)c1cc(Cl)cc(NC(=O)OCc2ccccc2)c1 [ASAP-0017736, NCCNC(=O)c1cc(Cl)cc(NC(=O)OCc2ccccc2)c1] | > 89.3 µM | – |
| NC12CCC(CNC(=O)c3cc(Cl)cc(NC(=O)OCc4ccccc4)c3)(CC1)OC2 [ASAP-0021132, NC12CCC(CNC(=O)c3cc(Cl)cc(NC(=O)OCc4ccccc4)c3)(CC1)OC2] | 29.7 µM | – |
| O=C(Nc1cc(Cl)cc(C(=O)Nc2cccc3c2CNC3)c1)OCc1ccccc1 [ASAP-0021189, O=C(Nc1cc(Cl)cc(C(=O)Nc2cccc3c2CNC3)c1)OCc1ccccc1] | 67.8 µM | – |
| O=C(Nc1cc(Cl)cc(C(=O)Nc2nc3c(s2)CNC3)c1)OCc1ccccc1 [ASAP-0021026, O=C(Nc1cc(Cl)cc(C(=O)Nc2nc3c(s2)CNC3)c1)OCc1ccccc1] | 76.9 µM | – |
| O=C(Nc1cc(Cl)cc(C(=O)NC2([C@H]3CCNC3)CC2)c1)OCc1ccccc1 [ASAP-0021452, O=C(Nc1cc(Cl)cc(C(=O)NC2([C@H]3CCNC3)CC2)c1)OCc1ccccc1 ¦&1:13¦] | – | ZIKV NS2B-NS3 pKi (library 1, supplement): < 4.05; Ki [2]: > 89.3 µM |
| O=C(Nc1cc(Cl)cc(C(=O)Nc2nc3c(s2)CCNC3)c1)OCc1ccccc1 [ASAP-0021029, O=C(Nc1cc(Cl)cc(C(=O)Nc2nc3c(s2)CCNC3)c1)OCc1ccccc1] | 48 µM | – |
